Assay results from publication PMC12655252, “Synthesis of 1H-Pyrrolo[3,2-g]isoquinoline Derivatives as Ligands Targeting Haspin Kinase” (Molecules, 2025).

What was measured:
Haspin = details: Figure 2; cited from earlier work
HsHaspin-kd = target: T1, HsHaspin-kd (Homo sapiens, UniProt Q8TF76); assay: ADP-Glo in vitro kinase inhibition assay, Haspin; type: biochemical; details: 10 μM ATP, duplicate; for remaining activity at 1 µM: 1 μM compound; for remaining activity at 1 µM / remaining activity at 10 µM: read-out: Haspin % residual activity; for remaining activity at 10 µM: 10 μM compound
T1 construct: kinase domain, amino acids 470–798 cloned in pGEX-6P-3; made in house; host or cells: bacteria
T1 sequence (Q8TF76 470-798): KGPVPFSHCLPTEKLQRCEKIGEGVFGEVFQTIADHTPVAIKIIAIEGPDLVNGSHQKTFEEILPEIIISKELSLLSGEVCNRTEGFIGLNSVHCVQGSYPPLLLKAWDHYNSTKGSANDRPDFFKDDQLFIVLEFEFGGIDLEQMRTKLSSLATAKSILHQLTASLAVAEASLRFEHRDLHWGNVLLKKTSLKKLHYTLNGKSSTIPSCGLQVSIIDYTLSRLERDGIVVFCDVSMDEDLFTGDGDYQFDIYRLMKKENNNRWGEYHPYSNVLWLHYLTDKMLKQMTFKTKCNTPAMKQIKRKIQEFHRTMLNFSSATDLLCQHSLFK
Description: (§1) We previouly reported that substitution at the 3-position with halogen atoms or pyridinyl or formyl groups was compatible with high potency toward Haspin kinase. To check if the current structural changes were in line with potent Haspin inhibition and high selectivity, enabling consideration of these compounds as possible targeting ligands for the PROTAC approach, compounds 2, 3, 8–11, and 15–17 were evaluated toward a panel of eight protein kinases, including Haspin, as well as other kinases known to be frequently cross-inhibited (CLK1, DYRK1A, CDK9/Cyclin T, GSK-3β, CK1ε, CDK5/p25, and Pim1) (Table 1). The percentage of residual kinase activity was evaluated at 10 μM and 1 μM compound concentrations. […].
(§2) Kinase inhibition was tested in 384-well plates using the ADP-GloTM assay kit (Promega, Madison, WI, USA) according to the procedure recommended by the manufacturer. Reactions were set up in a final volume of 6 μL in an appropriate kinase buffer (10 mM MgCl2, 1 mM EGTA, 1 mM DTT, 25 mM Tris-HCl pH 7.5, 50 μg/mL heparin) with either protein or peptide as the substrate in the presence of 10 μM ATP. To stop the kinase reaction, 6 μL of ADP-GloTM Kinase Reagent was added after 30 min at 30 °C. Then, after 50 min of incubation at room temperature (RT), 12 μL of Kinase Detection Reagent was added. The transmitted signal was measured after 1 h at RT using the Envision (Perkin Elmer, Waltham, MA, USA) microplate luminometer and expressed in relative light units (RLU). In order to determine the half-maximal inhibitory concentration (IC50), all assays were performed in duplicate in the absence or presence of increasing doses of the tested compounds. GraphPad Prism10 software (GraphPad Software, San Diego, CA, USA) was used to fit dose–response curves and to determine the IC50 values. Kinase activities are given as percentages of maximal activity, i.e., measured in the absence of inhibitor. Peptide substrates were obtained from Proteogenix (Schiltigheim, France).
(§3) The following protein kinases were analyzed in this study: CDK5/p25 (human, vector pGEX-2T, expressed in bacteria; kindly provided by Dr. J. H. Wang) was assayed with 0.8 μg/μL of histone H1 as substrate; HsCDK9/CyclinT (NP_001252/KAI4065659, cloned in pTEFb vector, expressed by baculovirus in Sf9 insect cells) were assayed with 0.27 μg/μL of the following peptide: […], as substrate; HsCK1ε (NP_001885, cloned in pFAST-BAC vector, expressed in Sf9 insect cells) was assayed with 0.022 μg/μL of the following peptide: […]pAYSITA (“Sp” stands for phosphorylated serine) as CK1-specific substrate; HsGSK3β (AAH12760, cloned in pFAST-BAC, expressed by baculovirus in Sf9 insect cells) were assayed with 0.010 μg/μL of GS-1 peptide, a GSK-3-selective substrate ([…]pEDEEE); HsHaspin-kd (NP_114171, kinase domain, amino acids 470–798 cloned in pGEX-6P-3, expressed in bacteria) was assayed with 0.007 μg/μL of histone H3 (1–21) peptide ([…]) as substrate; Pim-1 (KAI4018123, expressed in bacteria) was assayed with 0.8 μg/μL of histone H1 as substrate; HsCLK1 (NP_004062, cloned in pFAST-BAC, expressed in Sf9 insect cells) was assayed with 0.027 μg/μL of the peptide: […]; RnDYRK1A-kd (Rattus norvegicus, amino acids 1–499, pGEX-2TK, expressed in bacteria, gift from Dr. W. Becker, Aachen, Germany) was tested in the presence of 0.033 μg/μL of the peptide: […].

Pim-1 = target: T2, Pim-1 (Homo sapiens, UniProt P11309); assay: ADP-Glo in vitro kinase inhibition assay, Pim-1; type: biochemical; details: 10 μM ATP, read-out: PIM1 % residual activity; for remaining activity at 1 µM: 1 μM compound; for remaining activity at 10 µM: 10 μM compound
T2 construct: made in house; host or cells: bacteria
Description: as §1, §2, §3

HsGSK3β = target: T3, HsGSK3β (Homo sapiens, UniProt P49841); assay: ADP-Glo in vitro kinase inhibition assay, GSK3β; type: biochemical; details: 10 μM ATP, read-out: GSK3 % residual activity; for remaining activity at 1 µM: 1 μM compound; for remaining activity at 10 µM: 10 μM compound
T3 construct: made in house; host or cells: Sf9 insect cells (baculovirus)
Description: as §1, §2, §3

HsCLK1 = target: T4, HsCLK1 (Homo sapiens, UniProt P49759); assay: ADP-Glo in vitro kinase inhibition assay, CLK1; type: biochemical; details: 10 μM ATP, read-out: CLK1 % residual activity; for remaining activity at 1 µM: 1 μM compound; for remaining activity at 10 µM: 10 μM compound
T4 construct: made in house; host or cells: Sf9 insect cells
Description: as §1, §2, §3

RnDYRK1A-kd = target: T5, RnDYRK1A-kd (Rattus norvegicus, UniProt Q63470); assay: ADP-Glo in vitro kinase inhibition assay, DYRK1A; type: biochemical; details: 10 μM ATP, read-out: DYRK1A % residual activity; for remaining activity at 1 µM: 1 μM compound; for remaining activity at 10 µM: 10 μM compound
T5 construct: Rattus norvegicus, amino acids 1–499, pGEX-2TK; made in house; host or cells: bacteria
Description: as §1, §2, §3

CDK5/p25 = target: T6, CDK5/p25 (Homo sapiens, UniProt Q00535); assay: ADP-Glo in vitro kinase inhibition assay, CDK5/p25; type: biochemical; details: 10 μM ATP, read-out: CDK5 % residual activity; for remaining activity at 1 µM: 1 μM compound; for remaining activity at 10 µM: 10 μM compound
T6 construct: made in house; host or cells: bacteria
Description: as §1, §2, §3

HsCDK9/CyclinT = target: T7, HsCDK9/CyclinT (Homo sapiens, UniProt P50750); assay: ADP-Glo in vitro kinase inhibition assay, CDK9/CyclinT; type: biochemical; details: 10 μM ATP, read-out: CDK9 % residual activity; for remaining activity at 1 µM: 1 μM compound; for remaining activity at 10 µM: 10 μM compound
T7 construct: made in house; host or cells: Sf9 insect cells (baculovirus)
Description: as §1, §2, §3

HsCK1ε = target: T8, HsCK1ε (Homo sapiens, UniProt P49674); assay: ADP-Glo in vitro kinase inhibition assay, CK1ε; type: biochemical; details: 10 μM ATP, read-out: CK1 % residual activity; for remaining activity at 1 µM: 1 μM compound; for remaining activity at 10 µM: 10 μM compound
T8 construct: made in house; host or cells: Sf9 insect cells
Description: as §1, §2, §3

T8 sequence (P49674 whole entry): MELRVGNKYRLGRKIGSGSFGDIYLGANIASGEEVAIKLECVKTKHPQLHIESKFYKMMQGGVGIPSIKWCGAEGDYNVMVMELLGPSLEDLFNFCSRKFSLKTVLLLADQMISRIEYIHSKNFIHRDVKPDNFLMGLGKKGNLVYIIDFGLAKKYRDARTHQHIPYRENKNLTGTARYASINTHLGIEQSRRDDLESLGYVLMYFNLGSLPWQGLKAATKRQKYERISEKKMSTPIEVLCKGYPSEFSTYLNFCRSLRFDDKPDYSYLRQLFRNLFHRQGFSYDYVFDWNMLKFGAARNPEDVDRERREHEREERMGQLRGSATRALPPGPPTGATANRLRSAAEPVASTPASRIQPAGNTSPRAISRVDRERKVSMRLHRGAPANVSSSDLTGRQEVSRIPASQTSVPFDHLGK
T7 sequence (P50750 whole entry): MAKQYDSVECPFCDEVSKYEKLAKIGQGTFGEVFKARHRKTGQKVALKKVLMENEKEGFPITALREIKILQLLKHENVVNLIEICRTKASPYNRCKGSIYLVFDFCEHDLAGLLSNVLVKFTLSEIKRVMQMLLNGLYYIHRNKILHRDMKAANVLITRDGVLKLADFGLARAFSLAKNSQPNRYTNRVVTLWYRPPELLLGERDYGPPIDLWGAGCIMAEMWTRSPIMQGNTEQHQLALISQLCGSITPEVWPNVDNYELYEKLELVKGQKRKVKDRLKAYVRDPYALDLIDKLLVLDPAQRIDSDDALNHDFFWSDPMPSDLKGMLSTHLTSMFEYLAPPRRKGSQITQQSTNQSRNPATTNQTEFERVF
T7 sequence (O60563 whole entry partner): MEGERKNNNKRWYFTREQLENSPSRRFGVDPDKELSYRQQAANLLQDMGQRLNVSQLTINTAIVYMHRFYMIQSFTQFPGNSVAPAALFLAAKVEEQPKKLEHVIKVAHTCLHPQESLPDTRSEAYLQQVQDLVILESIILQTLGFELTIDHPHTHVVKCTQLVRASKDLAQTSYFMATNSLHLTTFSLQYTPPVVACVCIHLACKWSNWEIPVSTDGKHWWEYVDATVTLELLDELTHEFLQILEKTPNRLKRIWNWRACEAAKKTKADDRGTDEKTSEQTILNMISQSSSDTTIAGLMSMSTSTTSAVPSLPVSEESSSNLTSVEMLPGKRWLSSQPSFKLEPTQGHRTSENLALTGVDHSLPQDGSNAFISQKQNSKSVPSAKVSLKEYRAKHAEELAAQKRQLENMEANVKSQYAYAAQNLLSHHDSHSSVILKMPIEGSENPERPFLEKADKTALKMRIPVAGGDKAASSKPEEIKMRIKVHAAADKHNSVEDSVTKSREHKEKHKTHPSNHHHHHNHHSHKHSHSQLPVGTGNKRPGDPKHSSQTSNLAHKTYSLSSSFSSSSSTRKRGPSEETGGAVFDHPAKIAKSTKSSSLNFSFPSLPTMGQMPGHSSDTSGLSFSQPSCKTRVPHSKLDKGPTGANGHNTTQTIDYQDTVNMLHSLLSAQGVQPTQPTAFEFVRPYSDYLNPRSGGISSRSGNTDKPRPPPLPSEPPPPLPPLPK
T4 sequence (P49759 whole entry): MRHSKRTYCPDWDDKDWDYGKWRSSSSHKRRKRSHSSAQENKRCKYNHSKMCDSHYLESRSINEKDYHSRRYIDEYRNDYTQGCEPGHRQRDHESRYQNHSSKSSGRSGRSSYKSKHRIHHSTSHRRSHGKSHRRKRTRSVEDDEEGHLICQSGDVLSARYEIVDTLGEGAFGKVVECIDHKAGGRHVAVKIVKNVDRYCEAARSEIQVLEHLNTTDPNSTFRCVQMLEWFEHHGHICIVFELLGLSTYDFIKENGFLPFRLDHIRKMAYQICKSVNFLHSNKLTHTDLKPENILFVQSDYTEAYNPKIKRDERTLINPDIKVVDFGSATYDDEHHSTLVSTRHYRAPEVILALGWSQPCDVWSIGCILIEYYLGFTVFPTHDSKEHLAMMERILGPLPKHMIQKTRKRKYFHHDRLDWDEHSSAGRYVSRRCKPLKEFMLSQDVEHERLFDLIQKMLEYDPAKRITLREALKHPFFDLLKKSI
T6 sequence (Q00535 whole entry): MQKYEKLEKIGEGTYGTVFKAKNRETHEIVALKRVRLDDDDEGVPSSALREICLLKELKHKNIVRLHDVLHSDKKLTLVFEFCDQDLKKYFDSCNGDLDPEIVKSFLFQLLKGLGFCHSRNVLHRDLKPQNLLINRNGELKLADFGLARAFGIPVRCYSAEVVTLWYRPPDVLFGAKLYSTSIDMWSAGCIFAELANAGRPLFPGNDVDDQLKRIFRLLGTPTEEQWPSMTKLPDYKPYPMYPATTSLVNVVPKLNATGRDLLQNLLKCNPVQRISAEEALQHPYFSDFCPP
T6 sequence (Q15078 99-307 partner limits assumed): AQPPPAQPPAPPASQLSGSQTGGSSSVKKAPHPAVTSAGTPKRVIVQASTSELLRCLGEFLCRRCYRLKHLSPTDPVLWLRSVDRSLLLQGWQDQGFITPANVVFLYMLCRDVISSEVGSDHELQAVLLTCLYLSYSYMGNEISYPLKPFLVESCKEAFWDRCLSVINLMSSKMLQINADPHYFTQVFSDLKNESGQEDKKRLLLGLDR
T3 sequence (P49841 whole entry): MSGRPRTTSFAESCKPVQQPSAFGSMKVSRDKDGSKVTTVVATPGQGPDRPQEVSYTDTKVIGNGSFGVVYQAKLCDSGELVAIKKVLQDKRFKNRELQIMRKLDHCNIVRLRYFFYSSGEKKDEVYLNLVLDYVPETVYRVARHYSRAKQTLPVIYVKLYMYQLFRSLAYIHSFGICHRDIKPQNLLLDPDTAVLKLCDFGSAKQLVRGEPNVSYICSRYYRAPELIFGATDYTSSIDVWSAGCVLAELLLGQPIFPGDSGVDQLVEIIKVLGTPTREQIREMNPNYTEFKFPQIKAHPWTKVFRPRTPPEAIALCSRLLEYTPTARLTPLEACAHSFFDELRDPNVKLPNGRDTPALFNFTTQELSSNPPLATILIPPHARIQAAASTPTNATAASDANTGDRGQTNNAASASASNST
T2 sequence (P11309 whole entry): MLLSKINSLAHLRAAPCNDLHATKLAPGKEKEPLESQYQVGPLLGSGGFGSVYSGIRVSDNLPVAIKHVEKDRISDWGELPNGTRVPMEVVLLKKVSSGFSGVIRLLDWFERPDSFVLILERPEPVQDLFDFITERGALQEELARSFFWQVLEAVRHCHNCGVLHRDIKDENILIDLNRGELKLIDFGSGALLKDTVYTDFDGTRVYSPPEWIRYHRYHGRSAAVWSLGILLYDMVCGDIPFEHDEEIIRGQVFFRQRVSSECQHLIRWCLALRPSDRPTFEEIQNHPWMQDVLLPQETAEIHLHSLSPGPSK

Question: Which results are given for Clc1cc(-c2c[nH]c3cc4cnccc4cc23)ccn1 [Compound 2, 3-(2-Chloro-pyridin-4-yl)-1H-pyrrolo[3,2-g]isoquinoline]?
Answer: remaining activity at 1 µM (HsHaspin-kd): 9%; IC50 (HsHaspin-kd): 10.1 nM; remaining activity at 10 µM (HsHaspin-kd): 8%; remaining activity at 1 µM (Pim-1): 20%; remaining activity at 10 µM (Pim-1): 14%; remaining activity at 1 µM (HsGSK3β): 76%; remaining activity at 10 µM (HsGSK3β): 81%; remaining activity at 1 µM (HsCLK1): 56%; remaining activity at 10 µM (HsCLK1): 27%; remaining activity at 1 µM (RnDYRK1A-kd): 20%; remaining activity at 10 µM (RnDYRK1A-kd): 16%; remaining activity at 1 µM (CDK5/p25): 100%; remaining activity at 10 µM (CDK5/p25): 100%; remaining activity at 1 µM (HsCDK9/CyclinT): 81%; remaining activity at 10 µM (HsCDK9/CyclinT): 56%; remaining activity at 1 µM (HsCK1ε): 79%; remaining activity at 10 µM (HsCK1ε): 54%

Question: Which results are given for CC(C)(C)OC(=O)/C=C/c1c[nH]c2cc3cnccc3cc12 [Compound 9, tert-Butyl (E)-3-(1H-Pyrrolo[3,2-g]isoquinolin-3-yl)prop-2-enoate]?
Answer: remaining activity at 1 µM (HsHaspin-kd): 30%; IC50 (HsHaspin-kd): 392 nM; remaining activity at 10 µM (HsHaspin-kd): 12%; remaining activity at 1 µM (Pim-1): 42%; remaining activity at 10 µM (Pim-1): 21%; remaining activity at 1 µM (HsGSK3β): 80%; remaining activity at 10 µM (HsGSK3β): 80%; remaining activity at 1 µM (HsCLK1): 86%; remaining activity at 10 µM (HsCLK1): 48%; remaining activity at 1 µM (RnDYRK1A-kd): 51%; remaining activity at 10 µM (RnDYRK1A-kd): 28%; remaining activity at 1 µM (CDK5/p25): 100%; remaining activity at 10 µM (CDK5/p25): 100%; remaining activity at 1 µM (HsCDK9/CyclinT): 79%; remaining activity at 10 µM (HsCDK9/CyclinT): 32%; remaining activity at 1 µM (HsCK1ε): 92%; remaining activity at 10 µM (HsCK1ε): 87%

Question: What does the source list for COC(=O)CCc1c[nH]c2cc3cnccc3cc12 [Compound 10, Methyl 3-(1H-Pyrrolo[3,2-g]isoquinolin-3-yl)propanoate]?
Answer: remaining activity at 1 µM (HsHaspin-kd): 45%; IC50 (HsHaspin-kd): 82.1 nM; remaining activity at 10 µM (HsHaspin-kd): 10%; remaining activity at 1 µM (Pim-1): 72%; remaining activity at 10 µM (Pim-1): 52%; remaining activity at 1 µM (HsGSK3β): 100%; remaining activity at 10 µM (HsGSK3β): 99%; remaining activity at 1 µM (HsCLK1): 91%; remaining activity at 10 µM (HsCLK1): 60%; remaining activity at 1 µM (RnDYRK1A-kd): 72%; remaining activity at 10 µM (RnDYRK1A-kd): 32%; remaining activity at 1 µM (CDK5/p25): 100%; remaining activity at 10 µM (CDK5/p25): 100%; remaining activity at 1 µM (HsCDK9/CyclinT): 90%; remaining activity at 10 µM (HsCDK9/CyclinT): 72%; remaining activity at 1 µM (HsCK1ε): 100%; remaining activity at 10 µM (HsCK1ε): 97%

Question: Which results are given for CC(C)(C)OC(=O)CCc1c[nH]c2cc3cnccc3cc12 [Compound 11, tert-Butyl 3-(1H-Pyrrolo[3,2-g]isoquinolin-3-yl)propanoate]?
Answer: remaining activity at 1 µM (HsHaspin-kd): 70%; remaining activity at 10 µM (HsHaspin-kd): 52%; remaining activity at 1 µM (Pim-1): 70%; remaining activity at 10 µM (Pim-1): 60%; remaining activity at 1 µM (HsGSK3β): 83%; remaining activity at 10 µM (HsGSK3β): 94%; remaining activity at 1 µM (HsCLK1): 98%; remaining activity at 10 µM (HsCLK1): 81%; remaining activity at 1 µM (RnDYRK1A-kd): 58%; remaining activity at 10 µM (RnDYRK1A-kd): 31%; remaining activity at 1 µM (CDK5/p25): 100%; remaining activity at 10 µM (CDK5/p25): 100%; remaining activity at 1 µM (HsCDK9/CyclinT): 100%; remaining activity at 10 µM (HsCDK9/CyclinT): 86%; remaining activity at 1 µM (HsCK1ε): 98%; remaining activity at 10 µM (HsCK1ε): 81%

Question: For Cc1ccc(NC(=O)c2ccc3c(c2)c(CNCCN2CCNCC2)cn3C)cc1C [Compound A], which IC50 (Haspin) is on record?
Answer: 0.01 nM

Question: With COc1ccc2c(c1)[nH]c1c(C)nccc12 [Harmine, harmine] as the molecule, how does the IC50 (Haspin) read?
Answer: 590 nM

Question: Which IC50 (Haspin) does the source give for COc1ccc2nc3ccc(Cl)cc3c(SCCCN)c2c1 [LDN-209929] here?
Answer: 55 nM

Question: With C#Cc1cn([C@@H]2S[C@H](CN=[N+]=[N-])[C@@H](O)[C@H]2O)c2ncnc(N)c12 [LJ-4827] as the molecule, how does the Ki (Haspin) read?
Answer: 0.465 nM

Question: Which IC50 (Haspin) does the source give for harmol here?
Answer: 770 nM
